According to ChEMBL document CHEMBL3351875, “Synthesis of Deuterated Benzopyran Derivatives as Selective COX-2 Inhibitors with Improved Pharmacokinetic Properties” (ACS Med Chem Lett, 2014):

Experiments:
[1] = target: Prostaglandin G/H synthase 1 (Homo sapiens, UniProt P23219); experiment: Inhibition of human recombinant COX1 pre-incubated for 15 mins before fluorometric substrate addition by fluorescence based assay
[2] = target: T1, Prostaglandin G/H synthase 2 (Homo sapiens, UniProt P35354); experiment: Inhibition of human recombinant COX2 pre-incubated for 15 mins before fluorometric substrate addition by fluorescence based assay
T1 sequence (P35354 whole entry): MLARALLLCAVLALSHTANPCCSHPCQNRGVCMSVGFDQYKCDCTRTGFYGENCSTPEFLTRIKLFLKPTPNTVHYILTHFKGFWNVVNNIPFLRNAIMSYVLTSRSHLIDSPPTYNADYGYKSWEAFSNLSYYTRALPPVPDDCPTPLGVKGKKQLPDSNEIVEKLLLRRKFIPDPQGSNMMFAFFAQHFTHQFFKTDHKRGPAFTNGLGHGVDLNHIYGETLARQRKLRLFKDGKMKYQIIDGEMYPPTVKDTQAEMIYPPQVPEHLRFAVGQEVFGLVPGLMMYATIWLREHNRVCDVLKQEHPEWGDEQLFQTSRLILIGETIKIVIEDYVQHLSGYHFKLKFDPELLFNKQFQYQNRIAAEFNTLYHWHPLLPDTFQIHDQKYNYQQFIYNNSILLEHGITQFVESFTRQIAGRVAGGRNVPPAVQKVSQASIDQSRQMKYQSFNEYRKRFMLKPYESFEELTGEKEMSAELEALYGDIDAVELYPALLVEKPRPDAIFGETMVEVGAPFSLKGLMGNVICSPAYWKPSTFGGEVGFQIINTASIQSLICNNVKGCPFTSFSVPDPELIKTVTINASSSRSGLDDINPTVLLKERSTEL

[3] = Oral bioavailability in Sprague-Dawley rat at 2.5 mg/kg measured during 1 to 24 hrs by LC-MS method; format: ADME, organism-based; settings: Sprague-Dawley, in vivo
Rattus norvegicus [4] = experiment: Tmax in Sprague-Dawley rat at 2.5 mg/kg, po measured during 1 to 24 hrs by LC-MS method; format: ADME, organism-based; parameters: dose 2.5 mg/kg, route oral; settings: in vivo
[5] = Cmax in Sprague-Dawley rat at 2.5 mg/kg, po measured during 1 to 24 hrs by LC-MS method; format: ADME, organism-based; parameters: dose 2.5 mg/kg, route oral; settings: in vivo
Rattus norvegicus [6] = experiment: Volume of distribution in Sprague-Dawley rat at 2.5 mg/kg, po measured during 1 to 24 hrs by LC-MS method; format: ADME, organism-based; parameters: dose 2.5 mg/kg, route oral; settings: in vivo
Rattus norvegicus [7] = experiment: Half life in Sprague-Dawley rat at 2.5 mg/kg, po measured during 1 to 24 hrs by LC-MS method; format: ADME, organism-based; parameters: dose 2.5 mg/kg, route oral; settings: in vivo
[8] = AUC (0 to infinity) in Sprague-Dawley rat at 2.5 mg/kg, po measured during 1 to 24 hrs by LC-MS method; format: ADME, organism-based, Plasma; parameters: dose 2.5 mg/kg, route oral, time infinity; settings: Sprague-Dawley, plasma
[9] = Apparent oral clearance in Sprague-Dawley rat at 2.5 mg/kg, po measured during 1 to 24 hrs by LC-MS method; format: ADME, organism-based; parameters: dose 2.5 mg/kg, route oral; settings: Sprague-Dawley, in vivo
[10] = Cmax in Sprague-Dawley rat at 1 mg/kg, iv measured during 1 to 24 hrs by LC-MS method; format: ADME, organism-based; parameters: dose 1 mg/kg, route intravenous; settings: in vivo
[11] = Volume of distribution in Sprague-Dawley rat at 1 mg/kg, iv measured during 1 to 24 hrs by LC-MS method; format: ADME, organism-based; parameters: dose 1 mg/kg, route intravenous; settings: in vivo
Rattus norvegicus [12] = experiment: Half life in Sprague-Dawley rat at 1 mg/kg, iv measured during 1 to 24 hrs by LC-MS method; format: ADME, organism-based; parameters: dose 1 mg/kg, route intravenous; settings: in vivo
[13] = AUC (0 to infinity) in Sprague-Dawley rat at 1 mg/kg, iv measured during 1 to 24 hrs by LC-MS method; format: ADME, organism-based, Plasma; parameters: time infinity, dose 1 mg/kg, route intravenous; settings: Sprague-Dawley, plasma
[14] = Apparent oral clearance in Sprague-Dawley rat at 1 mg/kg, iv measured during 1 to 24 hrs by LC-MS method; format: ADME, organism-based; parameters: dose 1 mg/kg, route oral; settings: in vivo
[15] = Volume of distribution in Sprague-Dawley rat at 2.5 mg/kg, iv measured during 1 to 24 hrs by LC-MS method; format: ADME, organism-based; parameters: dose 2.5 mg/kg, route intravenous; settings: in vivo
Rattus norvegicus [16] = experiment: Half life in Sprague-Dawley rat at 2.5 mg/kg, iv measured during 1 to 24 hrs by LC-MS method; format: ADME, organism-based; parameters: dose 2.5 mg/kg, route intravenous; settings: in vivo
Rattus norvegicus [17] = experiment: AUC (0 to infinity) in Sprague-Dawley rat at 2.5 mg/kg, iv measured during 1 to 24 hrs by LC-MS method; format: ADME, organism-based, Plasma; parameters: time infinity, dose 2.5 mg/kg, route intravenous; settings: in vivo
[18] = Apparent oral clearance in Sprague-Dawley rat at 2.5 mg/kg, iv measured during 1 to 24 hrs by LC-MS method; format: ADME, organism-based; parameters: dose 2.5 mg/kg, route oral; settings: in vivo
Rattus norvegicus [19] = experiment: Antiinflammatory activity in orally dosed Sprague-Dawley rat model of carrageenan-induced air pouch inflammation assessed as reduction in PGE2 level by ELISA method; format: functional, organism-based
Rattus norvegicus [20] = experiment: Antiinflammatory activity in orally dosed Sprague-Dawley rat model of carrageenan-induced foot paw edema assessed as reduction in edema by plethysmometry; format: functional, organism-based
Rattus norvegicus [21] = experiment: Antinociceptive activity in orally dosed Sprague-Dawley rat model of carrageenan-induced foot paw hyperalgesia assessed as paw withdrawal latency; format: functional, organism-based
Rattus norvegicus [22] = experiment: Antiarthritic activity in Lewis rat model of adjuvant-induced arthritis administrated by oral gavage once daily; format: functional; settings: tested as the 2H-labelled form
[23] = Oral bioavailability in Sprague-Dawley rat at 5 mg/kg measured during 1 to 24 hrs by LC-MS method; format: ADME, organism-based; settings: in vivo
Rattus norvegicus [24] = experiment: Tmax in Sprague-Dawley rat at 5 mg/kg, po measured during 1 to 24 hrs by LC-MS method; format: ADME, organism-based; parameters: dose 5 mg/kg, route oral; settings: in vivo
[25] = Cmax in Sprague-Dawley rat at 5 mg/kg, po measured during 1 to 24 hrs by LC-MS method; format: ADME, organism-based; parameters: dose 5 mg/kg, route oral; settings: in vivo
Rattus norvegicus [26] = experiment: Volume of distribution in Sprague-Dawley rat at 5 mg/kg, po measured during 1 to 24 hrs by LC-MS method; format: ADME, organism-based; parameters: dose 5 mg/kg, route oral; settings: in vivo
Rattus norvegicus [27] = experiment: Half life in Sprague-Dawley rat at 5 mg/kg, po measured during 1 to 24 hrs by LC-MS method; format: ADME, organism-based; parameters: dose 5 mg/kg, route oral; settings: in vivo
Rattus norvegicus [28] = experiment: AUC (0 to infinity) in Sprague-Dawley rat at 5 mg/kg, po measured during 1 to 24 hrs by LC-MS method; format: ADME, organism-based, Plasma; parameters: time infinity, dose 5 mg/kg, route oral; settings: in vivo
[29] = Apparent oral clearance in Sprague-Dawley rat at 5 mg/kg, po measured during 1 to 24 hrs by LC-MS method; format: ADME, organism-based; parameters: dose 5 mg/kg, route oral; settings: in vivo
[30] = Cmax in Sprague-Dawley rat at 2.5 mg/kg, iv measured during 1 to 24 hrs by LC-MS method; format: ADME, organism-based; parameters: dose 2.5 mg/kg, route intravenous; settings: in vivo
[31] = Oral bioavailability in Sprague-Dawley rat at 30 mg/kg measured during 1 to 24 hrs by LC-MS method; format: ADME, organism-based; settings: in vivo
[32] = Tmax in Sprague-Dawley rat at 30 mg/kg, po measured during 1 to 24 hrs by LC-MS method; format: ADME, organism-based; parameters: dose 30 mg/kg, route oral; settings: in vivo
[33] = Cmax in Sprague-Dawley rat at 30 mg/kg, po measured during 1 to 24 hrs by LC-MS method; format: ADME, organism-based; parameters: dose 30 mg/kg, route oral; settings: in vivo
Rattus norvegicus [34] = experiment: Volume of distribution in Sprague-Dawley rat at 30 mg/kg, po measured during 1 to 24 hrs by LC-MS method; format: ADME, organism-based; parameters: dose 30 mg/kg, route oral; settings: in vivo
[35] = Half life in Sprague-Dawley rat at 30 mg/kg, po measured during 1 to 24 hrs by LC-MS method; format: ADME, organism-based; parameters: dose 30 mg/kg, route oral; settings: in vivo
[36] = AUC (0 to infinity) in Sprague-Dawley rat at 30 mg/kg, po measured during 1 to 24 hrs by LC-MS method; format: ADME, organism-based; parameters: time infinity, dose 30 mg/kg, route oral; settings: plasma
[37] = Apparent oral clearance in Sprague-Dawley rat at 30 mg/kg, po measured during 1 to 24 hrs by LC-MS method; format: ADME, organism-based; parameters: dose 30 mg/kg, route oral; settings: in vivo
[38] = Cmax in Sprague-Dawley rat at 10 mg/kg, iv measured during 1 to 24 hrs by LC-MS method; format: ADME, organism-based; parameters: dose 10 mg/kg, route intravenous; settings: in vivo
[39] = Volume of distribution in Sprague-Dawley rat at 10 mg/kg, iv measured during 1 to 24 hrs by LC-MS method; format: ADME, organism-based; parameters: dose 10 mg/kg, route intravenous; settings: in vivo
Rattus norvegicus [40] = experiment: Half life in Sprague-Dawley rat at 10 mg/kg, iv measured during 1 to 24 hrs by LC-MS method; format: ADME, organism-based; parameters: dose 10 mg/kg, route intravenous; settings: in vivo
[41] = AUC (0 to infinity) in Sprague-Dawley rat at 10 mg/kg, iv measured during 1 to 24 hrs by LC-MS method; format: ADME, organism-based; parameters: time infinity, dose 10 mg/kg, route intravenous; settings: plasma
[42] = Apparent oral clearance in Sprague-Dawley rat at 10 mg/kg, iv measured during 1 to 24 hrs by LC-MS method; format: ADME, organism-based; parameters: dose 10 mg/kg, route oral; settings: in vivo

Chain of Prostaglandin G/H synthase 1 (P23219 whole entry): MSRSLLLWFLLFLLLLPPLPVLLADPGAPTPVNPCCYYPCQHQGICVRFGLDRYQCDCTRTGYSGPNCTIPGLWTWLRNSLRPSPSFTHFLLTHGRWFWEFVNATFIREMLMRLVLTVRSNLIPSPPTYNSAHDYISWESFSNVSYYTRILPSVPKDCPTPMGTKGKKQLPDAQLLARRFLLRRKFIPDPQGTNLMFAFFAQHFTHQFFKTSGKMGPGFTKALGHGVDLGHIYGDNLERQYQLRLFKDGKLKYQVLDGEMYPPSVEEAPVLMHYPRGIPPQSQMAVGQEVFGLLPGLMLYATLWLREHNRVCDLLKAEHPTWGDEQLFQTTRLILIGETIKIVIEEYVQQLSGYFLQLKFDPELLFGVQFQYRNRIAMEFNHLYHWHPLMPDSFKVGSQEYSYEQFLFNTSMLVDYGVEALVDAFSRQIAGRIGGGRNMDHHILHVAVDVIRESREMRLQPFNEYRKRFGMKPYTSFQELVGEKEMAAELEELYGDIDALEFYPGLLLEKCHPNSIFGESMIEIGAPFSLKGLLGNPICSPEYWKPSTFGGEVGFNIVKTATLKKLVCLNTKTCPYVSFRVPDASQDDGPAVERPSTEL

Cc1cc2c(c(C)c1Br)C=C(C(=O)O)C(C(F)(F)F)O2 (centres undefined)
IC50 [1]: > 100000 nM | IC50 [2]: 190 nM | bioavailability [3]: 56.7% | Tmax (Rattus norvegicus [4]): 0.375 h | Cmax [5]: 5340 ng/mL | Vd (Rattus norvegicus [6]): 1.13 L/kg | t1/2 (Rattus norvegicus [7]): 3.53 h | AUC(0-inf) [8]: 12500 ng·h/mL | CL/F [9]: 3.52 mL/min/kg | Cmax [10]: 16700 ng/mL | Vd [11]: 0.38 L/kg | t1/2 (Rattus norvegicus [12]): 2.3 h | AUC(0-inf) [13]: 8840 ng·h/mL | CL/F [14]: 1.98 mL/min/kg

Cc1cc(Br)cc2c1OC(C(F)(F)F)C(C(=O)O)=C2 (centres undefined)
Vd [15]: 0.15 L/kg | t1/2 (Rattus norvegicus [16]): 0.58 h | AUC (Rattus norvegicus [17]): 14843.535 ng·h/mL | CL/F [18]: 2.87 mL/min/kg | EC50 (Rattus norvegicus [19]): 0.47 mg/kg | EC50 (Rattus norvegicus [20]): 3.47 mg/kg | EC50 (Rattus norvegicus [21]): 3.52 mg/kg | inhibition (Rattus norvegicus [22]): Dose-dependent effect | IC50 [1]: > 100000 nM | IC50 [2]: 28 nM | bioavailability [23]: 46.3% | Tmax (Rattus norvegicus [24]): 0.438 h | Cmax [25]: 11500 ng/mL | Vd (Rattus norvegicus [26]): 0.65 L/kg | t1/2 (Rattus norvegicus [27]): 1.51 h | AUC (Rattus norvegicus [28]): 17190.28 ng·h/mL | CL/F [29]: 4.97 mL/min/kg | Cmax [30]: 38600 ng/mL

[2H]C([2H])([2H])C([2H])([2H])c1cc(OC(F)(F)F)cc2c1OC(C(F)(F)F)C(C(=O)O)=C2 (centres undefined)
bioavailability [31]: 60.2% | Tmax [32]: 1.25 h | Cmax [33]: 33500 ng/mL | Vd (Rattus norvegicus [34]): 0.491 L/kg | half-life [35]: 4.54 h | AUC(0-inf) [36]: 403000 ng·h/mL | CL/F [37]: 1.25 mL/min/kg | Cmax [38]: 51600 ng/mL | Vd [39]: 0.39 L/kg | t1/2 (Rattus norvegicus [40]): 5.946 h | AUC(0-inf) [41]: 223000 ng·h/mL | CL/F [42]: 0.783 mL/min/kg
